For series [1], the target named is Nitric oxide synthase 1 (Rattus norvegicus, UniProt P29476).
Series [2] concerns the target Nitric oxide synthase 1 (Homo sapiens, UniProt P29475). Kind of series: Inhibition of human neuronal NOS expressed in Escherichia coli using L-arginine as substrate assessed as reduction in NO production by measuring oxidation of oxyHb to metHb measured for 6 mins by hemoglobin- NO capture assay.
In another series the target is T1, Nitric oxide synthase 3 (Homo sapiens, UniProt P29474).
T1 sequence (P29474 whole entry): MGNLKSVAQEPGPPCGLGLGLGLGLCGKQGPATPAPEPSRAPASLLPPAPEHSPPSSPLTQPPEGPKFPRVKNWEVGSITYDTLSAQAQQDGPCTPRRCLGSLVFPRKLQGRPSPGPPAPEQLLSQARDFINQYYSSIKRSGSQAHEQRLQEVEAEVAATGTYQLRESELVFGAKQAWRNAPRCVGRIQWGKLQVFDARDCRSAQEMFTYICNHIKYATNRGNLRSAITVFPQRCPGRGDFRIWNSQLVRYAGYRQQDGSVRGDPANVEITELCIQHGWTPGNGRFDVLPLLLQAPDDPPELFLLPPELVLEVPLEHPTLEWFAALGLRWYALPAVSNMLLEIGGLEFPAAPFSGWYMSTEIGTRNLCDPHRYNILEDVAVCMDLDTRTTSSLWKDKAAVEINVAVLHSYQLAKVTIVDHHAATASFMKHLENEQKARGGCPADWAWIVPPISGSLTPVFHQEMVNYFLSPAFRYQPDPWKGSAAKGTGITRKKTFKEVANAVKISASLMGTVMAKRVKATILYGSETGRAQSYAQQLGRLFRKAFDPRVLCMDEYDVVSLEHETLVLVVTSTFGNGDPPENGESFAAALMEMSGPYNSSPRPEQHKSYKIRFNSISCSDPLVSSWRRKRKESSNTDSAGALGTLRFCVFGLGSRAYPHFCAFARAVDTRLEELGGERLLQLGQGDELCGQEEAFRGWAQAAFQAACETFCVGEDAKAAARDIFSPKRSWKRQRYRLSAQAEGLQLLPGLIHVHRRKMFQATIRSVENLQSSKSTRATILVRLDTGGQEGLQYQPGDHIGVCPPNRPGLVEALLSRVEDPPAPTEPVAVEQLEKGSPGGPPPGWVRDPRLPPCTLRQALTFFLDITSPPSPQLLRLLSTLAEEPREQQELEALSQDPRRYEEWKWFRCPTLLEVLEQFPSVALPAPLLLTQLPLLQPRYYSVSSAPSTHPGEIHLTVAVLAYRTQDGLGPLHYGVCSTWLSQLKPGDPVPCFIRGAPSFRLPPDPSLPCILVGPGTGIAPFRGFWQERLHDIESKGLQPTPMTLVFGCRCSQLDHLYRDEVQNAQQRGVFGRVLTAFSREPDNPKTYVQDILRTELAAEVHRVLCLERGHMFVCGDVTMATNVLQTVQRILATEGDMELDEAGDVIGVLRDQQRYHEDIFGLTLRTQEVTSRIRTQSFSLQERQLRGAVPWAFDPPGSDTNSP
Type of series: ADME.

The target in series [3] is T2, Nitric oxide synthase, inducible (Mus musculus, UniProt P29477).
T2 sequence (P29477 whole entry): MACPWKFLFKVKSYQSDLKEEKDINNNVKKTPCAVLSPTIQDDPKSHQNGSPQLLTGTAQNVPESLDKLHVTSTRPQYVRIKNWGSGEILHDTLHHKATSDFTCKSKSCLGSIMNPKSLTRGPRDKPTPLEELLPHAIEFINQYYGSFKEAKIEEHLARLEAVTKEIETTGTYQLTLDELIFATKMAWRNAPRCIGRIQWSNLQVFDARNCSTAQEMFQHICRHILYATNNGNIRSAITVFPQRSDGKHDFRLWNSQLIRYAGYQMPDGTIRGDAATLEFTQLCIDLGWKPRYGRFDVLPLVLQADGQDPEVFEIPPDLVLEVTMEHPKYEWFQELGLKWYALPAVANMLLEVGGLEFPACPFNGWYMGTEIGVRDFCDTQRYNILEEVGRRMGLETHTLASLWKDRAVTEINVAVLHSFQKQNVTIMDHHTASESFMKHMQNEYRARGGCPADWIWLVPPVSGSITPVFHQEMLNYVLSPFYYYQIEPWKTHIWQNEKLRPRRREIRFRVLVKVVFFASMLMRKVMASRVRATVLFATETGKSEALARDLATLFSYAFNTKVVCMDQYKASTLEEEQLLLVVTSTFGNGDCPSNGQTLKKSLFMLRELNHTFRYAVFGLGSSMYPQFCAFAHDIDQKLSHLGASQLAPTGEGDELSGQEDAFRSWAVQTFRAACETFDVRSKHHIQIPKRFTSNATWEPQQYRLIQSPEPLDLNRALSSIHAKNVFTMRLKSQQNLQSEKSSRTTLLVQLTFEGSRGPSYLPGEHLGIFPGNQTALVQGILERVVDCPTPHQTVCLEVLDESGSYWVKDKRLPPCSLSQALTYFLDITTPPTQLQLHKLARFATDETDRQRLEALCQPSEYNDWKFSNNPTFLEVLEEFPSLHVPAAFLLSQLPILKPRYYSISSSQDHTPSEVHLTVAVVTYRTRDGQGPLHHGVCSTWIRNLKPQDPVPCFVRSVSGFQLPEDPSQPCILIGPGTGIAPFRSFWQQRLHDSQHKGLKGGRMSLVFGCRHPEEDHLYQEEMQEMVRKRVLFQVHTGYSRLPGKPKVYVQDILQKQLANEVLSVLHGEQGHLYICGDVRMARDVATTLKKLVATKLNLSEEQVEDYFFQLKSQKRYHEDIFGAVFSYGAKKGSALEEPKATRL

The nature of a further series: physchem. Conditions: PAMPA. (In general: PAMPA measures passive passage across an artificial lipid membrane.)

Nitric oxide synthase 1 (Homo sapiens, UniProt P29475), sequence (P29475 whole entry): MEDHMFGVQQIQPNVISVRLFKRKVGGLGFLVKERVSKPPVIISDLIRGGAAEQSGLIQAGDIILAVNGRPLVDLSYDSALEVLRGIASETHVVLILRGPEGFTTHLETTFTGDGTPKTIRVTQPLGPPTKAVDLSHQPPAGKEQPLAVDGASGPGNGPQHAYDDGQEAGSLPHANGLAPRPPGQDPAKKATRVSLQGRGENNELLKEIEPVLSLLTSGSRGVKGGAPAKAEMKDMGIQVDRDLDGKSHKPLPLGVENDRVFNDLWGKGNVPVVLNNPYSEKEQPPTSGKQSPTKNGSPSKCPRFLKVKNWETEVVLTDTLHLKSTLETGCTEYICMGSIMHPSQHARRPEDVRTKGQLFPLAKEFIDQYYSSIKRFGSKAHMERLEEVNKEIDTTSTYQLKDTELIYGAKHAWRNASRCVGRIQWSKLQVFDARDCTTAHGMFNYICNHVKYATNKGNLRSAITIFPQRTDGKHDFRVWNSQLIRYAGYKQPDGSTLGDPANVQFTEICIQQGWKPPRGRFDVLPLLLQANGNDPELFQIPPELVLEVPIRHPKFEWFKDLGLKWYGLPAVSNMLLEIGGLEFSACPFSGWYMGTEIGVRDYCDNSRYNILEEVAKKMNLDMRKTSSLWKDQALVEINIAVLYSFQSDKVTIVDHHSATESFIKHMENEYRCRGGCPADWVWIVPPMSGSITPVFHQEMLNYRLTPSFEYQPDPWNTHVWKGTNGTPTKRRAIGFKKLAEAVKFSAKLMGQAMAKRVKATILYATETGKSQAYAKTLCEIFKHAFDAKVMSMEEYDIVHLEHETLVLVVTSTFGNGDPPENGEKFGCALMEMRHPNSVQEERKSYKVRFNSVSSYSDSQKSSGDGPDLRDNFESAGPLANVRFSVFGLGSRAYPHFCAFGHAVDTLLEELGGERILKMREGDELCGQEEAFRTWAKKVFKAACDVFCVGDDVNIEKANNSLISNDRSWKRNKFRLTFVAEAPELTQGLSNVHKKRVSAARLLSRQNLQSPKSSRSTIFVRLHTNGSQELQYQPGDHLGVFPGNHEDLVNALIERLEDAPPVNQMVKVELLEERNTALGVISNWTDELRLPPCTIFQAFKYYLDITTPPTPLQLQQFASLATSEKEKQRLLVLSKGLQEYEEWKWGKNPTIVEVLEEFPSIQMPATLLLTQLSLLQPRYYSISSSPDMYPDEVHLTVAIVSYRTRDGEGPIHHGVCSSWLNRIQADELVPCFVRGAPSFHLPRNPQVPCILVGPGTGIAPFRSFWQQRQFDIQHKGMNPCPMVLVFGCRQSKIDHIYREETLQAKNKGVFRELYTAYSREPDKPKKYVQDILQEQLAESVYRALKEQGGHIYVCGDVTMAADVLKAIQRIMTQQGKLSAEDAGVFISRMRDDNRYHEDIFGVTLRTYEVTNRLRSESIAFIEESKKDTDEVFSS
Nitric oxide synthase 1 (Rattus norvegicus, UniProt P29476), sequence (P29476 whole entry): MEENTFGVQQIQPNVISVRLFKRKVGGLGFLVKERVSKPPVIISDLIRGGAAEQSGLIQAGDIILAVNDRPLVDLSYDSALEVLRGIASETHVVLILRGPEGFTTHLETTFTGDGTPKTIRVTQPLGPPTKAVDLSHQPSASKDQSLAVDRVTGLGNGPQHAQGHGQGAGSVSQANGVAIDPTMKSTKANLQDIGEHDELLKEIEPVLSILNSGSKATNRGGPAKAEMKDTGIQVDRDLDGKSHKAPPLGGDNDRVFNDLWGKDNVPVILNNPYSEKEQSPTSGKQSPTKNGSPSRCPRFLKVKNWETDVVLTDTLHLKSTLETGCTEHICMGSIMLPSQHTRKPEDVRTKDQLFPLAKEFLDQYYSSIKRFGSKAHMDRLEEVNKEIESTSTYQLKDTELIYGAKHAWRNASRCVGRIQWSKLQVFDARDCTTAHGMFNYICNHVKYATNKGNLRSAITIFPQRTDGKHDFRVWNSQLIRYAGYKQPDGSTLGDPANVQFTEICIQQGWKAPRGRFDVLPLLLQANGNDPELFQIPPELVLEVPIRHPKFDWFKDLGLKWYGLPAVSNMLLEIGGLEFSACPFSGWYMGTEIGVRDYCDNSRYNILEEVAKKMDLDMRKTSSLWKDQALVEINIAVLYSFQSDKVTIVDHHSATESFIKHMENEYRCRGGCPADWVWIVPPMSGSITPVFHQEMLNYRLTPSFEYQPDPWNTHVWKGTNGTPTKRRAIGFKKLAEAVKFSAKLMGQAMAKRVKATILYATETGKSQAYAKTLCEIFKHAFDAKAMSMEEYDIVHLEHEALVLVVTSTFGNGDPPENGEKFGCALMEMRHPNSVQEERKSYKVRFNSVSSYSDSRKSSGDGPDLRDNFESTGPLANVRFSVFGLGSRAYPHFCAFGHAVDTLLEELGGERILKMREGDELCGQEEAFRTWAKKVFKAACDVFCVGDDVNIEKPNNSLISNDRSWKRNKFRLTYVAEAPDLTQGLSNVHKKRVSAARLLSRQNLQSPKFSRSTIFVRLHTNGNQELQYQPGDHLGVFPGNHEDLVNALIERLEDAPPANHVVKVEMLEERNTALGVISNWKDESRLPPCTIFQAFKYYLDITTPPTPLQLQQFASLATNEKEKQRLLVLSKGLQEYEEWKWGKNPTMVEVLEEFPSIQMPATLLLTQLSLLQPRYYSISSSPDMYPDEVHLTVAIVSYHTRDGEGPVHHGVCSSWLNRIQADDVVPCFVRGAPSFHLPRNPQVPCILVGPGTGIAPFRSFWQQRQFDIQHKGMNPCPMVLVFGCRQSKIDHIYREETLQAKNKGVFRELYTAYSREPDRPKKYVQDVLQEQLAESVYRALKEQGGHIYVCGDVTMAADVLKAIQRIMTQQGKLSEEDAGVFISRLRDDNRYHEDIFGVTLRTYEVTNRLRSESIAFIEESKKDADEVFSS
Description for physchem: Effective permeability of compound at 200 uM after 17 hrs by PAMPA-BBB assay

Broadly, the Ki is the equilibrium dissociation constant of an inhibitor or competing ligand from its target. As for `CNCc1ccc(-c2cc(F)cc(CCc3cc(C)cc(N)n3)c2)cc1`, the inhibition constant Ki at Nitric oxide synthase 1 [1] turned out to be 185 nM; at Nitric oxide synthase 1 [2], 362 nM; on Nitric oxide synthase 3, 69900 nM; in series [3], 10900 nM.

In general, Papp refers to the rate of passage across a membrane or cell layer, normalised by area and donor concentration. `CNCc1cccc(-c2cc(F)cc(CCc3cc(C)cc(N)n3)c2)c1`: the apparent permeability (Papp) at 17 h, 200 µM in the series “physchem” was found to be 17.4 ×10⁻⁶ cm/s. Further, the inhibitory constant (Ki) on Nitric oxide synthase 1 [1] is 44 nM; at Nitric oxide synthase 1 [2] it was 83 nM; on Nitric oxide synthase 3, 19400 nM; in series [3] it was 3010 nM.

For `CNCCCc1cc(CCc2cc(C)cc(N)n2)cc(C(F)(F)F)c1`, the inhibitory constant (Ki) at Nitric oxide synthase 1 [1] stood at 346 nM; on Nitric oxide synthase 1 [2] it was 598 nM; on Nitric oxide synthase 3, 51500 nM; in series [3], 33700 nM.

For `CNCc1cccc(-c2cncc(CCc3cc(C)cc(N)n3)c2)c1`, the Papp at 17 h, 200 µM in “physchem” worked out at 5.56 ×10⁻⁶ cm/s. For the same molecule, the inhibition constant (Ki) at Nitric oxide synthase 1 [1] is 47 nM; at Nitric oxide synthase 1 [2], 82 nM; at Nitric oxide synthase 3, 8670 nM; in series [3], 3010 nM.

As to `Cc1cc(N)nc(CCc2cccc(CCCN(C)C)c2)c1`, the Ki at Nitric oxide synthase 1 [1] amounted to 60 nM; at Nitric oxide synthase 1 [2], 43 nM; at Nitric oxide synthase 3, 20800 nM; in series [3] it was 3460 nM.

For the molecule `CNCCCc1cc(F)cc(CCc2cc(C)cc(N)n2)c1`, the Ki on Nitric oxide synthase 1 [1] is 41 nM; on Nitric oxide synthase 1 [2] it was 65 nM; on Nitric oxide synthase 3, 39500 nM; in series [3] it was 4650 nM.

Regarding `CNCc1ccc(-c2cncc(CCc3cc(C)cc(N)n3)c2)cc1`, the inhibition constant (Ki) turned out to be 57 nM on Nitric oxide synthase 1 [1], 100 nM on Nitric oxide synthase 1 [2] and 4210 nM in series [3].

Regarding `Cc1cc(N)nc(CCc2cc(CCCN(C)C)cc(C(F)(F)F)c2)c1`, the results for the inhibition constant (Ki) (on Nitric oxide synthase 1 [1]; in series [3]) were 541 nM and 36000 nM, respectively.

For `CNCCCc1cc(C#N)cc(CCc2cc(C)cc(N)n2)c1`, the Ki is 252 nM at Nitric oxide synthase 1 [1], 516 nM on Nitric oxide synthase 1 [2], 42100 nM on Nitric oxide synthase 3 and 16200 nM in series [3].

Consider `CNc1cccc(-c2cncc(CCc3cc(C)cc(N)n3)c2)c1`, for which the inhibition constant Ki was found to be 1700 nM at Nitric oxide synthase 1 [1] and 6700 nM in series [3].

`Cc1cc(N)nc(CCc2cc(C#N)cc(CCCN(C)C)c2)c1`: the Ki at Nitric oxide synthase 1 [1] worked out at 232 nM; in series [3], 16400 nM.

In turn, `CNCCCc1cccc(CCc2cc(C)cc(N)n2)c1` yielded a Papp at 17 h, 200 µM in the series “physchem” of 10.4 ×10⁻⁶ cm/s. In addition, the Ki turned out to be 48 nM at Nitric oxide synthase 1 [1], 55 nM on Nitric oxide synthase 1 [2], 20100 nM at Nitric oxide synthase 3 and 3610 nM in series [3].
